Assay results as given in patent publication US20130052644A1, “Predictive Markers Useful in the Treatment of Fragile X Syndrome (FXS)” (priority 2010, published 2013).

How the values were obtained:
Type in all cases: in vivo, human
[1] = tested on: patients having Fragile X Syndrome (FXS); experiment: Clinical response versus placebo in clinical study (measure not given)
Text: As used herein, “an mGluR5 responder” is an individual having FXS who is likely following therapeutic treatment with an mGluR5 antagonist to show improved behavioral symptoms as assessed using the Aberrant Behavior Checklist—Community Edition (ABC-C) measure of behavior (Bihm et al., Am. J. Ment Retard 96:209-211). The ABC-C measurement looks at various behaviors including stereotypic behavior, hyperactivity, inappropriate speech, and restricted interests. […] The behavioral symptoms may also be assessed by other methods, such as Clinical Global Impression (CGI) scale, Social Responsiveness Scale (SRS), or Repetitive Behavior Scale-Revised (RBS-R). Individuals showing an improvement according to these tests will also be determined to be an mGluR5 responder. […]
Among the 30 patients who completed the clinical study, 26 consented for pharmacogenetic/pharmacogenomic assessments. […] A total of 26 DNA and 24 RNA samples were successfully extracted and analyzed. […]
Genomic DNA was treated with bisulfite (Qiagen, Valencia, Calif.). […] A total of 26 patients and 4 normal controls were analyzed.
FMR1 mRNA expression was measured by Taqman real-time PCR. […]
The expression levels of the control genes, GAPDH and UBC, were used to adjust for inter-sample variability. […] A total of 24 patients and 9 normal controls were analyzed. […]

[2] = tested on: patients having Fragile X Syndrome (FXS); experiment: Aberrant Behavior Checklist-Community Edition (ABC-C) scores in clinical study, by FMR1 methylation status / mRNA expression; conditions: for ABC-C improvement in response over placebo / ABC-C Subscale I (Irritability), treatment difference / ABC-C Subscale II (Lethargy), treatment difference / ABC-C Subscale III (Stereotype), treatment difference / ABC-C Subscale IV (Hyperactivity), treatment difference / ABC-C Subscale V (Inappropriate Speech), treatment difference / ABC-C Total of subscales, treatment difference: day 19; for ABC-C Subscale I (Irritability), treatment difference / ABC-C Subscale II (Lethargy), treatment difference / ABC-C Subscale III (Stereotype), treatment difference / ABC-C Subscale IV (Hyperactivity), treatment difference / ABC-C Subscale V (Inappropriate Speech), treatment difference / ABC-C Total of subscales, treatment difference: versus placebo, adjusted for baseline
Text: (§1) As used herein, “an mGluR5 responder” is an individual having FXS who is likely following therapeutic treatment with an mGluR5 antagonist to show improved behavioral symptoms as assessed using the Aberrant Behavior Checklist—Community Edition (ABC-C) measure of behavior (Bihm et al., Am. J. Ment Retard 96:209-211). The ABC-C measurement looks at various behaviors including stereotypic behavior, hyperactivity, inappropriate speech, and restricted interests. […] The behavioral symptoms may also be assessed by other methods, such as Clinical Global Impression (CGI) scale, Social Responsiveness Scale (SRS), or Repetitive Behavior Scale-Revised (RBS-R). Individuals showing an improvement according to these tests will also be determined to be an mGluR5 responder.
(§2) The present examples were performed as a follow up to a clinical trial which investigated whether the mGluR5 antagonist (−)-(3aR,4S,7aR)-4-Hydroxy-4-m-tolylethynyl-octahydro-indole-1-carboxylic acid methyl ester could provide beneficial treatment to a subject having FXS. The present study was set up to identify if a subset of patients exist that respond to (−)-(3aR,4S,7aR)-4-Hydroxy-4-m-tolylethynyl-octahydro-indole-1-carboxylic acid methyl ester treatment. In an attempt to identify such a subset of patients who respond to (−)-(3aR,4S,7aR)-4-Hydroxy-4-m-tolylethynyl-octahydro-indole-1-carboxylic acid methyl ester treatment, a study was conducted to investigate the relationship between FMR1 methylation/mRNA expression and (−)-(3aR,4S,7aR)-4-Hydroxy-4-m-tolylethynyl-octahydro-indole-1-carboxylic acid methyl ester efficacy in the study.
(§3) Among the 30 patients who completed the clinical study, 26 consented for pharmacogenetic/pharmacogenomic assessments. Genomic DNA was extracted from whole blood according to the instructions from Gentra (Minneapolis, Minn.). Total RNA was extracted from whole blood according to the instructions from Qiagen (Valencia, Calif.). A total of 26 DNA and 24 RNA samples were successfully extracted and analyzed. In addition, normal control DNAs were purchased from Coriell Institute (Camden, N.J.).
(§4) Genomic DNA was treated with bisulfite (Qiagen, Valencia, Calif.). MSP was performed using the CpG WIZ Fragile X Amplification Kit from Chemicon (Temecula, Calif.) according to manufacture's instruction. A total of 26 patients and 4 normal controls were analyzed.
(§5) FMR1 mRNA expression was measured by Taqman real-time PCR. The primers and probe were designed by Applied Biosystems (Foster City, Calif.; fragile X mental retardation 1 Hs 00924544_ml, Glyceraldehyde-3-phosphate dehydrogenase Hs 99999905_ml; ubiquitin C Hs 00824723_ml)
(§6) The expression levels of the control genes, GAPDH and UBC, were used to adjust for inter-sample variability. The data is presented as normalized Ct (cycle threshold). A Ct value≧36 is considered to be the background of the assay. A total of 24 patients and 9 normal controls were analyzed.
(§7) Genomic DNA was treated with […] (Qiagen, Valencia, Calif.). The following primers were used to amplify the FMR1 promoter with 22 CpG sites: 5′-[…]-3′ (SEQ ID NO:10); and 5′-[…]-3′ (SEQ ID NO:11). The 196-bp FMR1 promoter was cloned using the TA cloning kit from Invitrogen (Carlsbad, Calif.) and 7-13 clones per patient were sequenced using ABI3730XL (Foster City, Calif.). More details can be found in the BMD report. A total of 26 patients and 4 normal controls were analyzed.

[3] = tested on: patients having Fragile X Syndrome (FXS); experiment: Clinical Global Impression (CGI) scale in clinical study, by FMR1 methylation status / mRNA expression; conditions: for CGI-global improvement, treatment difference / CGI-efficacy index, treatment difference: versus placebo, adjusted for baseline; for CGI-global improvement, treatment difference: decrease = improvement; for CGI-efficacy index, treatment difference: increase = improvement
Text: as §1, §2, §3, §4, §5, §6, §7

[4] = tested on: patients having Fragile X Syndrome (FXS); experiment: as above; conditions: day 19; patients fully methylated (probe-based methylation assay, 12 patients analysed) and/or not expressing FMR1 mRNA; p<0.001
[5] = fully methylated patients after reclassification (MSP, bisulfite-sequencing, additional MSP), p<0.001
[6] = patients who did not express FMR1 mRNA (n = 7)
[7] = patients who expressed FMR1 mRNA (n = 17)
[8] = patients with full methylation (n = 8)
[9] = patients with partial methylation (n = 18)
[10] = reclassified: patients with full methylation (determined by MSP and sequencing) (n = 7)
[11] = reclassified: patients with partial methylation (determined by MSP and sequencing) (n = 18)
[12] = day 19, patients who did not express FMR1 mRNA (n = 7)
[13] = day 19, patients who expressed FMR1 mRNA (n = 17)
[14] = day 19, patients with full methylation (n = 8)
[15] = day 19, patients with partial methylation (n = 18)
[16] = day 19, reclassified: patients with full methylation (by MSP and sequencing) (n = 7)
[17] = day 19, reclassified: patients with partial methylation (by MSP and sequencing) (n = 18)

SMILES: COC(=O)N1CC[C@@H]2[C@H]1CCC[C@@]2(O)C#Cc1cccc(C)c1 [(−)-(3aR,4S,7aR)-4-Hydroxy-4-m-tolylethynyl-octahydro-indole-1-carboxylic acid methyl ester]
- Difference between compound and placebo ([1]; patients partially methylated (initial MSP) or expressing FMR1 mRNA): no significant differences
- Difference between compound and placebo ([1]; patients partially methylated (probe-based methylation assay) or expressing FMR1 mRNA): no significant differences
- ABC-C improvement in response over placebo ([2]; patients fully methylated (initial MSP) or not expressing FMR1 mRNA, p<0.001): significantly greater improvement
- ABC-C improvement in response over placebo ([2]; patients fully methylated (probe-based methylation assay, 12 patients analysed) and/or not expressing FMR1 mRNA, p<0.001): significantly greater improvement
- ABC-C response versus placebo [2, 5]: significantly higher than placebo
- ABC-C Subscale I (Irritability), treatment difference [2, 6]: −3.69
- ABC-C Subscale II (Lethargy), treatment difference [2, 6]: −6.71
- ABC-C Subscale III (Stereotype), treatment difference [2, 6]: −3.03
- ABC-C Subscale IV (Hyperactivity), treatment difference [2, 6]: −9.12
- ABC-C Subscale V (Inappropriate Speech), treatment difference [2, 6]: −4.66
- ABC-C Total of subscales, treatment difference [2, 6]: −32.19
- ABC-C Subscale I (Irritability), treatment difference [2, 7]: −0.81
- ABC-C Subscale II (Lethargy), treatment difference [2, 7]: 1.93
- ABC-C Subscale III (Stereotype), treatment difference [2, 7]: 0.32
- ABC-C Subscale IV (Hyperactivity), treatment difference [2, 7]: −0.16
- ABC-C Subscale V (Inappropriate Speech), treatment difference [2, 7]: 1.09
- ABC-C Total of subscales, treatment difference [2, 7]: 2.23
- ABC-C Subscale I (Irritability), treatment difference [2, 8]: −4.33
- ABC-C Subscale II (Lethargy), treatment difference [2, 8]: −6.55
- ABC-C Subscale III (Stereotype), treatment difference [2, 8]: −3.96
- ABC-C Subscale IV (Hyperactivity), treatment difference [2, 8]: −8.77
- ABC-C Subscale V (Inappropriate Speech), treatment difference [2, 8]: −4.48
- ABC-C Total of subscales, treatment difference [2, 8]: −30.85
- ABC-C Subscale I (Irritability), treatment difference [2, 9]: −0.67
- ABC-C Subscale II (Lethargy), treatment difference [2, 9]: 3.76
- ABC-C Subscale III (Stereotype), treatment difference [2, 9]: 0.89
- ABC-C Subscale IV (Hyperactivity), treatment difference [2, 9]: 0.42
- ABC-C Subscale V (Inappropriate Speech), treatment difference [2, 9]: 1.09
- ABC-C Total of subscales, treatment difference [2, 9]: 5.66
- ABC-C Subscale I (Irritability), treatment difference [2, 10]: −2.66
- ABC-C Subscale II (Lethargy), treatment difference [2, 10]: −5.53
- ABC-C Subscale III (Stereotype), treatment difference [2, 10]: −5.06
- ABC-C Subscale IV (Hyperactivity), treatment difference [2, 10]: −8.55
- ABC-C Subscale V (Inappropriate Speech), treatment difference [2, 10]: −4.31
- ABC-C Total of subscales, treatment difference [2, 10]: −27.82
- ABC-C Subscale I (Irritability), treatment difference [2, 11]: −1.15
- ABC-C Subscale II (Lethargy), treatment difference [2, 11]: 2.66
- ABC-C Subscale III (Stereotype), treatment difference [2, 11]: 0.78
- ABC-C Subscale IV (Hyperactivity), treatment difference [2, 11]: −0.21
- ABC-C Subscale V (Inappropriate Speech), treatment difference [2, 11]: 0.81
- ABC-C Total of subscales, treatment difference [2, 11]: 3.10
- CGI-efficacy index improvement in response over placebo ([3]; day 19, patients fully methylated (initial MSP) or not expressing FMR1 mRNA, p<0.001): significantly greater improvement
- CGI-efficacy index response versus placebo [3, 5]: significantly higher than placebo
- CGI-global improvement, treatment difference [3, 12]: −2.02
- CGI-efficacy index, treatment difference [3, 12]: 1.99
- CGI-global improvement, treatment difference [3, 13]: 0.56
- CGI-efficacy index, treatment difference [3, 13]: −0.47
- CGI-global improvement, treatment difference [3, 14]: −1.94
- CGI-efficacy index, treatment difference [3, 14]: 1.86
- CGI-global improvement, treatment difference [3, 15]: 0.67
- CGI-efficacy index, treatment difference [3, 15]: −0.58
- CGI-global improvement, treatment difference [3, 16]: −1.78
- CGI-efficacy index, treatment difference [3, 16]: 1.76
- CGI-global improvement, treatment difference [3, 17]: 0.58
- CGI-efficacy index, treatment difference [3, 17]: −0.43
- CGI-efficacy index improvement in response over placebo [4]: significantly greater improvement
